For 27 compounds, Ki results are on record in patent EP1935887A1, “Heterocyclic substituted carbonyl derivatives and their use as dopamine D3 receptor ligands” (Aventis Pharmaceuticals Inc., priority 2001, dated 2002).

The first test deals with T1, Cloned Human Dopamine D3 Receptors (Homo sapiens, UniProt P35462).
T1 construct: expressed in transfected cells; membrane homogenate
T1 sequence (P35462 whole entry): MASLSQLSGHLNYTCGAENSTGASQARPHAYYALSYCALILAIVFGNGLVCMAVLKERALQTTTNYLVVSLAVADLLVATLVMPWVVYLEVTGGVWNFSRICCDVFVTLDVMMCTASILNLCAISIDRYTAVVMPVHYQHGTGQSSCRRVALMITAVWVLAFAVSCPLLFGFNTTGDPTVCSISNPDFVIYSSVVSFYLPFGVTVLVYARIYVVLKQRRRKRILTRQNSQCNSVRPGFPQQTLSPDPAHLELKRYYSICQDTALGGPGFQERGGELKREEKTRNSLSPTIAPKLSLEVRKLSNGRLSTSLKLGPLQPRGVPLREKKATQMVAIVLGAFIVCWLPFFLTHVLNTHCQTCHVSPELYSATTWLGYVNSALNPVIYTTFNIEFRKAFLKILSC
The test is described as follows: [N-Methyl-3H]Spiroperidol binding to cloned human dopamine D3 receptors. As to conditions: Table 2; unit inferred; read-out: d3Ki. In outline: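 [N-methyl-3H]spiroperidol binding is run in Tris buffer, pH 7.7. Receptor source is membranes of a stably transfected, high-expressing CHO clone carrying the human D3 gene, kept at -80°C in 10% DMSO.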
On to `CCOC(=O)[C@H]1CC[C@H](NC(=O)CCCN2CCN(c3csc4cc(C(F)(F)F)ccc34)CC2CCc2ccccc2)CC1` (stereo partly drawn) [compound 827071], for which the Ki worked out at 454 nM. The same measure, in the same setting: next, `CN(C(=O)CCCN1CCN(c2csc3cc(C(F)(F)F)ccc23)CC1CCc1ccccc1)C1CCCCC1` (stereo not drawn) [compound 827074]: 267 nM; `CN(C(=O)CCCN1CCN(c2csc3cc(C(F)(F)F)ccc23)CC1CCCc1ccccc1)C1CCCCC1` (stereo not drawn) [compound 827079]: 126 nM.

Turning to `CCOC(=O)C1CCC(NC(=O)CCCN2CCN(c3csc4cc(F)ccc34)CC2Cc2ccccc2)CC1` (stereo not drawn) [compound 827086], the Ki is 334 nM. As to `CCC1CCC(NC(=O)CCCN2CCN(c3csc4cc(F)ccc34)CC2Cc2ccccc2)CC1` (stereo not drawn) [compound 827087], the Ki worked out at 178 nM.

Regarding `CC1CCCC(NC(=O)CCCN2CCN(c3csc4cc(F)ccc34)CC2Cc2ccccc2)C1` (stereo not drawn) [compound 827088], the Ki is 284 nM.

For the compound `CN(C(=O)CCCN1CCN(c2csc3cc(F)ccc23)CC1Cc1ccccc1)C1CCCCC1` (stereo not drawn) [compound 827089], the Ki stood at 307 nM. On the same count and under the same terms, in the case of `CCN(C(=O)CCCN1CCN(c2csc3cc(F)ccc23)CC1Cc1ccccc1)C1CCCCC1` (stereo not drawn) [compound 827090] it was 346 nM; in that of `O=C(CCCN1CCN(c2csc3cc(F)ccc23)CC1Cc1ccccc1)NC1CCCC1` (stereo not drawn) [compound 827101], 148 nM. As to `O=C(CCCN1CCN(c2csc3cc(F)ccc23)CC1Cc1ccccc1)NC1CCCCC1` (stereo not drawn) [compound 827102], the Ki came out at 218 nM. On the same count and under the same terms, next, `C[C@H]1CC[C@H](NC(=O)CCCN2CCN(c3csc4cc(F)ccc34)CC2CCCc2ccccc2)CC1` (stereo partly drawn) [compound 827105]: 117 nM; `CCOC(=O)C1CCC(NC(=O)CCCN2CCN(c3csc4cc(F)ccc34)CC2CCCc2ccccc2)CC1` (stereo not drawn) [compound 827106]: 317 nM; `CC[C@H]1CC[C@H](NC(=O)CCCN2CCN(c3csc4cc(F)ccc34)CC2CCCc2ccccc2)CC1` (stereo partly drawn) [compound 827107]: 489 nM. Regarding `CC1CCCC(NC(=O)CCCN2CCN(c3csc4cc(F)ccc34)CC2CCCc2ccccc2)C1` (stereo not drawn) [compound 827108], the Ki came to 302 nM.

The same test, now with this note: Table 2 part the 10th table; read-out: d3Ki.
Regarding `CC1(C)CCCN(C(=O)CCCN2CCN(c3csc4cc(C(F)(F)F)ccc34)CC2Cc2ccccc2)C1` (stereo not drawn) [compound 827068], the Ki stood at 197 nM. Same read-out and setting: next, `CCOC(=O)C1CCN(C(=O)CCCN2CCN(c3csc4cc(C(F)(F)F)ccc34)CC2CCCc2ccccc2)CC1` (stereo not drawn) [compound 827082]: 303 nM. Regarding `CC1CCCCN1C(=O)CCCN1CCN(c2csc3cc(C(F)(F)F)ccc23)CC1CCCc1ccccc1` (stereo not drawn) [compound 827084], the Ki was determined as 266 nM. On the same count and under the same terms, in the case of `O=C(CCCN1CCN(c2csc3cc(F)ccc23)CC1Cc1ccccc1)N1CCC(O)CC1` (stereo not drawn) [compound 827093] it was 84 nM; in that of `CC1CCCCN1C(=O)CCCN1CCN(c2csc3cc(F)ccc23)CC1Cc1ccccc1` (stereo not drawn) [compound 827094], 34.6 nM. Still for that read-out and setting: next, `CC1CCN(C(=O)CCCN2CCN(c3csc4cc(F)ccc34)CC2Cc2ccccc2)CC1` (stereo not drawn) [compound 827095]: 37.8 nM; `CC1CCCN(C(=O)CCCN2CCN(c3csc4cc(F)ccc34)CC2Cc2ccccc2)C1` (stereo not drawn) [compound 827096]: 44.7 nM; `O=C(CCCN1CCN(c2csc3cc(F)ccc23)CC1Cc1ccccc1)N1CCC(N2CCCC2)CC1` (stereo not drawn) [compound 827097]: 51.5 nM. As to `CC1(C)CCCN(C(=O)CCCN2CCN(c3csc4cc(F)ccc34)CC2Cc2ccccc2)C1` (stereo not drawn) [compound 827098], the Ki is 82.9 nM. Same read-out and setting: in the case of `CC1CC(C)CN(C(=O)CCCN2CCN(c3csc4cc(F)ccc34)CC2Cc2ccccc2)C1` (stereo not drawn) [compound 827099] it was 144 nM. Still for that read-out and setting: next, `O=C(CCCN1CCN(c2csc3cc(F)ccc23)CC1Cc1ccccc1)N1CCCC1` (stereo not drawn) [compound 827100]: 63.5 nM.

For `CC1CCCN1C(=O)CCCN1CCN(c2csc3cc(F)ccc23)CC1Cc1ccccc1` (stereo not drawn) [compound 827103], the Ki was found to be 81.7 nM. As for `CN(C)C1CCN(C(=O)CCCN2CCN(c3csc4cc(F)ccc34)CC2Cc2ccccc2)C1` (stereo not drawn) [compound 827104], the Ki is 141 nM.
